Source: patent US20210300936A1, “PYRAZOLOTRIAZOLOPYRIMIDINE DERIVATIVES AS A2A RECEPTOR ANTAGONIST” (BEIGENE, LTD., priority 2018, published 2021)

Target: human A2A receptor (A2AR) (Homo sapiens, UniProt P29274)
Assay: Luciferase reporter assay (HEK293-A2AR-luc2p/CRE/Hygro cells, 3 nM CGS21680)
Format: cell-based
Conditions: 3 nM CGS21680, 5 h incubation
Method in brief: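 Antagonist (0.1–10000 nM) and 3 nM CGS21680 were co-added for 5 h to stable HEK293-A2AR-luc2p/CRE cells, 18 h after seeding in 1% FBS medium containing adenosine deaminase. Luminescence was normalized to agonist alone (100%), and IC50 came from the dose–inhibition curve.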

human A2A receptor (A2AR), sequence (P29274 whole entry): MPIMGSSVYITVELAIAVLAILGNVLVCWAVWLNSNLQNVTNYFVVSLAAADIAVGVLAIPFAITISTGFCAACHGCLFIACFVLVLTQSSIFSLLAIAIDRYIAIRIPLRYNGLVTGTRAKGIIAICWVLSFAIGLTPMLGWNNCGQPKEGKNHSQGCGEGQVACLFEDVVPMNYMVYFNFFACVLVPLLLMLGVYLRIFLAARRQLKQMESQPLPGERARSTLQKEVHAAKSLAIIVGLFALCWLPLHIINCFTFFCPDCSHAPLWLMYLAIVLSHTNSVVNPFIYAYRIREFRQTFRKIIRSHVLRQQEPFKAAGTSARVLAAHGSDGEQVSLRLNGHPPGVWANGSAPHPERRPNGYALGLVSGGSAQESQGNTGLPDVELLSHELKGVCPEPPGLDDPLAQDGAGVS

Row | Compound | IC50 [nM]
1 | COCCOc1ccc(N2CCN(C(=O)C(c3ccccc3)n3ncc4c3nc(N)n3nc(-c5ccco5)nc43)[C@@H](C)C2)cc1 (stereo partly drawn) [Compound A52, 2-(5-amino-2-(furan-2-yl)-7H-pyrazolo[4,3-e][1,2,4]triazolo[1,5-c]pyrimidin-7-yl)-1-((S)-4-(4-(2-methoxyethoxy)phenyl)-2-methylpiperazin-1-yl)-2-phenylethan-1-one] | 8.7
2 | CCCC(C(=O)N1CCN(c2ccc(OCCOC)c(F)c2)CC1)n1ncc2c1nc(N)n1nc(-c3ccco3)nc21 (stereo not drawn) [Compound A53, 2-(5-amino-2-(furan-2-yl)-7H-pyrazolo[4,3-e][1,2,4]triazolo[1,5-c]pyrimidin-7-yl)-1-(4-(3-fluoro-4-(2-methoxyethoxy)phenyl)piperazin-1-yl)pentan-1-one] | 5
3 | CCCC(C(=O)N1CCN(c2cc(F)c(OCCOC)cc2F)CC1)n1ncc2c1nc(N)n1nc(-c3ccco3)nc21 (stereo not drawn) [Compound A54, 2-(5-amino-2-(furan-2-yl)-7H-pyrazolo[4,3-e][1,2,4]triazolo[1,5-c]pyrimidin-7-yl)-1-(4-(2,5-difluoro-4-(2-methoxyethoxy)phenyl)piperazin-1-yl)pentan-1-one] | 4.9
4 | COCCOc1ccc(N2CCN(C(=O)C(c3ccccc3)n3ncc4c3nc(N)n3nc(-c5ccco5)nc43)CC2)cc1F (stereo not drawn) [Compound A55, 2-(5-amino-2-(furan-2-yl)-7H-pyrazolo[4,3-e][1,2,4]triazolo[1,5-c]pyrimidin-7-yl)-1-(4-(3-fluoro-4-(2-methoxyethoxy)phenyl)piperazin-1-yl)-2-phenylethan-1-one] | 2.3
5 | COCCOc1ccc(N2CCN(C(=O)C(c3ccccc3)n3ncc4c3nc(N)n3nc(-c5ccco5)nc43)CC2)c(F)c1F (stereo not drawn) [Compound A56, 2-(5-amino-2-(furan-2-yl)-7H-pyrazolo[4,3-e][1,2,4]triazolo[1,5-c]pyrimidin-7-yl)-1-(4-(2,3-difluoro-4-(2-methoxyethoxy)phenyl)piperazin-1-yl)-2-phenylethan-1-one] | 1.7
6 | COCCOc1cc(F)c(N2CCN(C(=O)C(c3ccccc3)n3ncc4c3nc(N)n3nc(-c5ccco5)nc43)CC2)cc1F (stereo not drawn) [Compound A57, 2-(5-amino-2-(furan-2-yl)-7H-pyrazolo[4,3-e][1,2,4]triazolo[1,5-c]pyrimidin-7-yl)-1-(4-(2,5-difluoro-4-(2-methoxyethoxy)phenyl)piperazin-1-yl)-2-phenylethan-1-one] | 5.3
7 | COCCOc1ccc(N2CCN(C(=O)C(C3CCNCC3)n3ncc4c3nc(N)n3nc(-c5ccco5)nc43)CC2)cc1 (stereo not drawn) [Compound A58, 2-(5-amino-2-(furan-2-yl)-7H-pyrazolo[4,3-e][1,2,4]triazolo[1,5-c]pyrimidin-7-yl)-1-(4-(4-(2-methoxyethoxy)phenyl)piperazin-1-yl)-2-(piperidin-4-yl)ethan-1-one] | > 10000
8 | COCCOc1ccc(N2CC(C)N(C(=O)C(c3ccccc3)n3ncc4c3nc(N)n3nc(-c5ccco5)nc43)C(C)C2)cc1 (stereo not drawn) [Compound A59, 2-(5-amino-2-(furan-2-yl)-7H-pyrazolo[4,3-e][1,2,4]triazolo[1,5-c]pyrimidin-7-yl)-1-(4-(4-(2-methoxyethoxy)phenyl)-2,6-dimethylpiperazin-1-yl)-2-phenylethan-1-one] | 18.4
9 | COCCOc1ccc(N2CCN(C(=O)C(C3CCN(C)CC3)n3ncc4c3nc(N)n3nc(-c5ccco5)nc43)CC2)cc1 (stereo not drawn) [Compound A60, 2-(5-amino-2-(furan-2-yl)-7H-pyrazolo[4,3-e][1,2,4]triazolo[1,5-c]pyrimidin-7-yl)-1-(4-(4-(2-methoxyethoxy)phenyl)piperazin-1-yl)-2-(1-methylpiperidin-4-yl)ethan-1-one] | > 10000
10 | Nc1nc2c(cnn2C(C(=O)N2CCN(c3ccc(OCCO)cc3)CC2)c2ccccc2)c2nc(-c3ccco3)nn12 (stereo not drawn) [Compound A61, 2-(5-amino-2-(furan-2-yl)-7H-pyrazolo[4,3-e][1,2,4]triazolo[1,5-c]pyrimidin-7-yl)-1-(4-(4-(2-hydroxyethoxy)phenyl)piperazin-1-yl)-2-phenylethan-1-one] | 0.5
11 | CC(O)COc1ccc(N2CCN(C(=O)C(c3ccccc3)n3ncc4c3nc(N)n3nc(-c5ccco5)nc43)CC2)cc1 (stereo not drawn) [Compound A62, 2-(5-amino-2-(furan-2-yl)-7H-pyrazolo[4,3-e][1,2,4]triazolo[1,5-c]pyrimidin-7-yl)-1-(4-(4-(2-hydroxypropoxy)phenyl)piperazin-1-yl)-2-phenylethan-1-one] | 1.3
12 | COCCOc1ccc(N2CCN(C(=O)C(C)(c3ccccc3)n3ncc4c3nc(N)n3nc(-c5ccco5)nc43)CC2)cc1 (stereo not drawn) [Compound A63, 2-(5-amino-2-(furan-2-yl)-7H-pyrazolo[4,3-e][1,2,4]triazolo[1,5-c]pyrimidin-7-yl)-1-(4-(4-(2-methoxyethoxy)phenyl)piperazin-1-yl)-2-phenylpropan-1-one] | 6.2
13 | COCCOc1ccc(N2CCN(C(=O)C(C)(c3ccccc3)n3ncc4c3nc(N)n3nc(-c5ccco5)nc43)CC2)c(F)c1 (stereo not drawn) [Compound A64, 2-(5-amino-2-(furan-2-yl)-7H-pyrazolo[4,3-e][1,2,4]triazolo[1,5-c]pyrimidin-7-yl)-1-(4-(2-fluoro-4-(2-methoxyethoxy)phenyl)piperazin-1-yl)-2-phenylpropan-1-one] | 4.8
14 | COCCOc1ccc(N2CCN(C(=O)[C@](C)(c3ccccc3)n3ncc4c3nc(N)n3nc(-c5ccco5)nc43)CC2)c(F)c1 [Compound A64a, (S)-2-(5-amino-2-(furan-2-yl)-7H-pyrazolo[4,3-e][1,2,4]triazolo[1,5-c]pyrimidin-7-yl)-1-(4-(2-fluoro-4-(2-methoxyethoxy)phenyl)piperazin-1-yl)-2-phenylpropan-1-one] | 17.5
15 | COCCOc1ccc(N2CCN(C(=O)[C@@](C)(c3ccccc3)n3ncc4c3nc(N)n3nc(-c5ccco5)nc43)CC2)c(F)c1 [Compound A64b, (R)-2-(5-amino-2-(furan-2-yl)-7H-pyrazolo[4,3-e][1,2,4]triazolo[1,5-c]pyrimidin-7-yl)-1-(4-(2-fluoro-4-(2-methoxyethoxy)phenyl)piperazin-1-yl)-2-phenylpropan-1-one] | 2.2
16 | COCCOc1cc(F)c(N2CCN(C(=O)C(C)(c3ccccc3)n3ncc4c3nc(N)n3nc(-c5ccco5)nc43)CC2)cc1F (stereo not drawn) [Compound A65, 2-(5-amino-2-(furan-2-yl)-7H-pyrazolo[4,3-e][1,2,4]triazolo[1,5-c]pyrimidin-7-yl)-1-(4-(2,5-difluoro-4-(2-methoxyethoxy)phenyl)piperazin-1-yl)-2-phenylpropan-1-one] | 6.4
17 | COCCOc1cc(F)c(N2CCN(C(=O)[C@](C)(c3ccccc3)n3ncc4c3nc(N)n3nc(-c5ccco5)nc43)CC2)cc1F [Compound A65a, (S)-2-(5-amino-2-(furan-2-yl)-7H-pyrazolo[4,3-e][1,2,4]triazolo[1,5-c]pyrimidin-7-yl)-1-(4-(2,5-difluoro-4-(2-methoxyethoxy)phenyl)piperazin-1-yl)-2-phenylpropan-1-one] | 21.4
18 | COCCOc1cc(F)c(N2CCN(C(=O)[C@@](C)(c3ccccc3)n3ncc4c3nc(N)n3nc(-c5ccco5)nc43)CC2)cc1F [Compound A65b, (R)-2-(5-amino-2-(furan-2-yl)-7H-pyrazolo[4,3-e][1,2,4]triazolo[1,5-c]pyrimidin-7-yl)-1-(4-(2,5-difluoro-4-(2-methoxyethoxy)phenyl)piperazin-1-yl)-2-phenylpropan-1-one] | 3.3
19 | COCCOc1ccc(N2CCN(C(=O)C(C)(c3ccccc3)n3ncc4c3nc(N)n3nc(-c5ccco5)nc43)CC2)cc1F (stereo not drawn) [Compound A66, 2-(5-amino-2-(furan-2-yl)-7H-pyrazolo[4,3-e][1,2,4]triazolo[1,5-c]pyrimidin-7-yl)-1-(4-(3-fluoro-4-(2-methoxyethoxy)phenyl)piperazin-1-yl)-2-phenylpropan-1-one] | 6.5
20 | COCCOc1ccc(N2CCN(C(=O)[C@](C)(c3ccccc3)n3ncc4c3nc(N)n3nc(-c5ccco5)nc43)CC2)cc1F [Compound A66a, (S)-2-(5-amino-2-(furan-2-yl)-7H-pyrazolo[4,3-e][1,2,4]triazolo[1,5-c]pyrimidin-7-yl)-1-(4-(3-fluoro-4-(2-methoxyethoxy)phenyl)piperazin-1-yl)-2-phenylpropan-1-one] | 16.8
21 | COCCOc1ccc(N2CCN(C(=O)[C@@](C)(c3ccccc3)n3ncc4c3nc(N)n3nc(-c5ccco5)nc43)CC2)cc1F [Compound A66b, (R)-2-(5-amino-2-(furan-2-yl)-7H-pyrazolo[4,3-e][1,2,4]triazolo[1,5-c]pyrimidin-7-yl)-1-(4-(3-fluoro-4-(2-methoxyethoxy)phenyl)piperazin-1-yl)-2-phenylpropan-1-one] | 3.3
22 | COCCOc1ccc(N2CCN(C(=O)C(C)(c3ccccc3)n3ncc4c3nc(N)n3nc(-c5ccco5)nc43)CC2)c(F)c1F (stereo not drawn) [Compound A67, 2-(5-amino-2-(furan-2-yl)-7H-pyrazolo[4,3-e][1,2,4]triazolo[1,5-c]pyrimidin-7-yl)-1-(4-(2,3-difluoro-4-(2-methoxyethoxy)phenyl)piperazin-1-yl)-2-phenylpropan-1-one] | 8.9
23 | CC(C(=O)N1CCN(c2ccc(F)cc2F)CC1)(c1ccccc1)n1ncc2c1nc(N)n1nc(-c3ccco3)nc21 (stereo not drawn) [Compound A68, 2-(5-amino-2-(furan-2-yl)-7H-pyrazolo[4,3-e][1,2,4]triazolo[1,5-c]pyrimidin-7-yl)-1-(4-(2,4-difluorophenyl)piperazin-1-yl)-2-phenylpropan-1-one] | 4.4
24 | CC(C(=O)N1CCN(c2ccccc2F)CC1)(c1ccccc1)n1ncc2c1nc(N)n1nc(-c3ccco3)nc21 (stereo not drawn) [Compound A69, 2-(5-amino-2-(furan-2-yl)-7H-pyrazolo[4,3-e][1,2,4]triazolo[1,5-c]pyrimidin-7-yl)-1-(4-(2-fluorophenyl)piperazin-1-yl)-2-phenylpropan-1-one] | 3.4
